ChEMBL document CHEMBL4706545, “Antiproliferative effect of mitochondria-targeting allobetulin 1,2,3-triazolium salt derivatives and their mechanism of inducing apoptosis of cancer cells” (Eur J Med Chem, 2020)

How the values were obtained:
HeLa = assay: Cytotoxicity against human HeLa cells assessed as reduction in cell viability incubated for 48 hrs by MTT assay; assay type: functional, cell-based
ECa-109 cell line = assay: Cytotoxicity against human ECa-109 cells assessed as reduction in cell viability incubated for 48 hrs by MTT assay; assay type: functional, cell-based; conditions: ECa-109, 48 h
HepG2 = assay: Cytotoxicity against human HepG2 cells assessed as reduction in cell viability incubated for 48 hrs by MTT assay; assay type: functional, cell-based; conditions: HepG2, 48 h
L02 = assay: Cytotoxicity against human HL7702 cells assessed as reduction in cell viability incubated for 48 hrs by MTT assay; assay type: ADME, cell-based; conditions: L02, 48 h
SGC-7901 = assay: Cytotoxicity against human SGC-7901 cells assessed as reduction in cell viability incubated for 48 hrs by MTT assay; assay type: functional, cell-based; conditions: SGC-7901, 48 h
[1] = Selectivity index, ratio of IC50 for cytotoxicity against human HL7702 cells to IC50 for cytotoxicity against human SGC-7901 cells
[2] = Selectivity index, ratio of IC50 for cytotoxicity against human HL7702 cells to IC50 for cytotoxicity against human ECa-109 cells

| SMILES | IC50 (HeLa) [µM] | IC50 (ECa-109 cell line) [µM] | IC50 (HepG2) [µM] | IC50 (L02) [µM] | IC50 (SGC-7901) [µM] | Ratio IC50 [1] | Ratio IC50 [2] |
| --- | --- | --- | --- | --- | --- | --- | --- |
| CC1(C)CC[C@]23CC[C@]4(C)[C@H](CC[C@@H]5[C@@]6(C)Cc7nnn(CCc8c[nH]c9ccccc89)c7C(C)(C)[C@@H]6CC[C@]54C)[C@H]2[C@H]1OC3 | 22.1 | 18.2 | 14.4 | 10.3 | 19.8 |  |  |
| COC(Cn1n[n+](C)c2c1C(C)(C)[C@@H]1CC[C@]3(C)[C@H](CC[C@@H]4[C@H]5[C@H]6OC[C@@]5(CCC6(C)C)CC[C@]43C)[C@@]1(C)C2)OC | 5.39 | 5.53 | 6.33 | 4.1 | 6.67 |  |  |
| CC1(C)CC[C@]23CC[C@]4(C)[C@H](CC[C@@H]5[C@@]6(C)Cc7nnn(CC(c8ccccc8)c8ccccc8)c7C(C)(C)[C@@H]6CC[C@]54C)[C@H]2[C@H]1OC3 | 44.1 | 48.5 | 53.9 | 40.7 | 47.9 |  |  |
| COc1cccc2c1C(=O)c1c(O)c3c(c(O)c1C2=O)C[C@@](O)(C(=O)CO)C[C@@H]3O[C@H]1C[C@H](N)[C@H](O)[C@H](C)O1 [DOXORUBICIN] | 1.07 | 2.06 |  | 0.94 | 1.53 | 0.61 | 0.46 |
| COc1cccc(CCn2n[n+](C)c3c2C(C)(C)[C@@H]2CC[C@]4(C)[C@H](CC[C@@H]5[C@H]6[C@H]7OC[C@@]6(CCC7(C)C)CC[C@]54C)[C@@]2(C)C3)c1 | 2.87 | 2.06 | 2.72 | 2.21 | 2.37 |  |  |
| COc1ccccc1Cn1nnc2c1C(C)(C)[C@@H]1CC[C@]3(C)[C@H](CC[C@@H]4[C@H]5[C@H]6OC[C@@]5(CCC6(C)C)CC[C@]43C)[C@@]1(C)C2 | 41.9 | 57.9 | 46.7 | 38.4 | 53 |  |  |
| CC1(C)CC[C@]23CC[C@]4(C)[C@H](CC[C@@H]5[C@@]6(C)CC[C@H](O)C(C)(C)[C@@H]6CC[C@]54C)[C@H]2[C@H]1OC3 [ALLOBETULIN] | 45.6 | 47.6 | 55.9 | 42.7 | 62.4 |  |  |
| C[n+]1nn(Cc2ccc(F)cc2)c2c1C[C@]1(C)[C@H]3CC[C@@H]4[C@H]5[C@H]6OC[C@@]5(CCC6(C)C)CC[C@@]4(C)[C@]3(C)CC[C@H]1C2(C)C | 3.03 | 3.06 | 2.89 | 2.2 | 3.02 |  |  |
| C[n+]1nn(Cc2cccc(F)c2)c2c1C[C@]1(C)[C@H]3CC[C@@H]4[C@H]5[C@H]6OC[C@@]5(CCC6(C)C)CC[C@@]4(C)[C@]3(C)CC[C@H]1C2(C)C | 2.78 | 3 | 2.24 | 1.41 | 3.05 |  |  |
| CC1(C)CC[C@]23CC[C@]4(C)[C@H](CC[C@@H]5[C@@]6(C)Cc7nnn(Cc8ccc(Cl)c(Cl)c8)c7C(C)(C)[C@@H]6CC[C@]54C)[C@H]2[C@H]1OC3 | 32.6 | 43.6 | 53.9 | 35.5 | 44.5 |  |  |
| COc1ccccc1CCn1nnc2c1C(C)(C)[C@@H]1CC[C@]3(C)[C@H](CC[C@@H]4[C@H]5[C@H]6OC[C@@]5(CCC6(C)C)CC[C@]43C)[C@@]1(C)C2 | 33.9 | 34.9 | 32.8 | 31.9 | 38.6 |  |  |
| COc1cc(Cn2nnc3c2C(C)(C)[C@@H]2CC[C@]4(C)[C@H](CC[C@@H]5[C@H]6[C@H]7OC[C@@]6(CCC7(C)C)CC[C@]54C)[C@@]2(C)C3)cc(OC)c1OC | 9.07 | 6.24 | 12.1 | 6.65 | 10.7 |  |  |
| CC1(C)CC[C@]23CC[C@]4(C)[C@H](CC[C@@H]5[C@@]6(C)Cc7nnn(Cc8ccc(Cl)cc8)c7C(C)(C)[C@@H]6CC[C@]54C)[C@H]2[C@H]1OC3 | 51.3 | 64.2 | 66 | 44.9 | 61.4 |  |  |
| C[n+]1nn(Cc2ccc(Cl)cc2)c2c1C[C@]1(C)[C@H]3CC[C@@H]4[C@H]5[C@H]6OC[C@@]5(CCC6(C)C)CC[C@@]4(C)[C@]3(C)CC[C@H]1C2(C)C | 2.45 | 2.16 | 1.73 | 1.62 | 2.68 |  |  |
| CCCCn1nnc2c1C(C)(C)[C@@H]1CC[C@]3(C)[C@H](CC[C@@H]4[C@H]5[C@H]6OC[C@@]5(CCC6(C)C)CC[C@]43C)[C@@]1(C)C2 | 6.26 | 10.5 | 10.7 | 7.86 | 6.61 |  |  |
| CC1(C)CC[C@]23CC[C@]4(C)[C@H](CC[C@@H]5[C@@]6(C)Cc7nnn(Cc8ccc(F)cc8)c7C(C)(C)[C@@H]6CC[C@]54C)[C@H]2[C@H]1OC3 | > 80 | 69 | 47.7 | 42 | > 80 |  |  |
| CCCCCCn1nnc2c1C(C)(C)[C@@H]1CC[C@]3(C)[C@H](CC[C@@H]4[C@H]5[C@H]6OC[C@@]5(CCC6(C)C)CC[C@]43C)[C@@]1(C)C2 | > 80 | 37.4 | > 80 | 51.9 | 40.9 |  |  |
| C[n+]1nn(Cc2cccc(Cl)c2)c2c1C[C@]1(C)[C@H]3CC[C@@H]4[C@H]5[C@H]6OC[C@@]5(CCC6(C)C)CC[C@@]4(C)[C@]3(C)CC[C@H]1C2(C)C | 2.07 | 3.01 | 2.67 | 1.89 | 2.41 |  |  |
